Experiment [1] addresses N-type calcium channels (Homo sapiens, UniProt Q00975). Put plainly: N-type calcium channel influx assay (fluorescence). In kind it is cell-based.
The target of experiment [2] is T1, MAO-B (Rattus norvegicus, UniProt P19643).
T1 construct: from tissue; host or cells: rat brain crude mitochondrial fraction
T1 sequence (P19643 1-520): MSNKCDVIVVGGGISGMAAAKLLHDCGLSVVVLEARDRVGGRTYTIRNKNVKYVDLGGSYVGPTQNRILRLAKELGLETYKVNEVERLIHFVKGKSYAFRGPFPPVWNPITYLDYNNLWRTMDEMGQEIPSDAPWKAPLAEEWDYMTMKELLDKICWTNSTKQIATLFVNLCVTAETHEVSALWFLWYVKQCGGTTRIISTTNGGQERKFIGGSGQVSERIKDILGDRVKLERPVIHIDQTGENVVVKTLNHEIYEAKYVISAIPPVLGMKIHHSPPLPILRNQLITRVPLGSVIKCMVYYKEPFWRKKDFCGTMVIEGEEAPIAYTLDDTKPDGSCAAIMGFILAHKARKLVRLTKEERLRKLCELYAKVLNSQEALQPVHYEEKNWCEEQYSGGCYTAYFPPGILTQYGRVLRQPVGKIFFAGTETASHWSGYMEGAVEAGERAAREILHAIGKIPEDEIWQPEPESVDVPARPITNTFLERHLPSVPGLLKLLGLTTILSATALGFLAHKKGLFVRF
Put plainly: In vitro MAO-B enzyme activity radioenzymatic assay. Format: biochemical. Conditions: 100 μM compound, rat brain crude mitochondrial fraction, 14C-PEA substrate. The method, then:
Male Wistar rats (Harlan, Italy—175-200 g) were sacrificed under light anaesthesia and brains were rapidly removed and homogenized in 8 volumes of ice-cold 0.32 M sucrose buffer containing 0.1 M EDTA, pH 7.4. The crude homogenate was centrifuged at 2220 rpm for 10 minutes and the supernatant recovered. The pellet was homogenized and centrifuged again. The two supernatants were pooled and centrifuged at 9250 rpm for 10 minutes at +4° C. The pellet was resuspended in fresh buffer and centrifuged at 11250 rpm for 10 minutes at +4° C. The resulting pellet was stored at −80° C.
The enzyme activities were assessed with a radioenzymatic assay using the substrates ^14C-serotonin (5-HT) and ^14C-phenylethylamine (PEA) for MAO-A and MAO-B, respectively.
The mitochondrial pellet (500 μg protein) was resuspended in 0.1 M phosphate buffer (pH 7.4). 500 μl of the suspension were added to a 50 μl solution of the test compound or buffer, and incubated for 30 min at 37° C. (preincubation) then the substrate (50 μl) was added. The incubation was carried out for 30 minutes at 37° C. (^14C-5-HT, 5 μM) or for 10 minutes at 37° C. (^14C-PEA, 0.5 μM).
The reaction was stopped by adding 0.2 ml of 37% HCl or perchloric acid. After centrifugation, the deaminated metabolites were extracted with 3 ml of diethyl ether (5-HT) or toluene (PEA) and the radioactive organic phase was measured by liquid scintillation spectrometry at 90% efficiency. The amount of neutral and/or acidic metabolites formed as a result of MAO activity was obtained by measuring the radioactivity of the eluate.
The activity of MAO in the sample, corresponding to a percentage of radioactivity compared with the control activity in the absence of the inhibitor, was expressed as nmoles of substrate transformed/mg protein/min.

Experiment [3] relates to L-type calcium channels. In kind it is cell-based, mouse. The settings on record: AtT20/D16v-F2 cells, ω-conotoxin 1 μM, 100 mM KCl depolarization.
Experiment [4] deals with TTXs sodium channels. The experiment in a line: TTXs-sodium channel influx assay (membrane potential fluorescence). Format: cell-based, rat. Conditions: ND7/23 cells, veratridine 100 μM. The method, then: ND7/23 rat dorsal root ganglion-derived cell line endogenously expresses a mixed population of TTXs sodium channels (such as Nav1.3, Nav1.2, Nav1.1, Nav1.6). These cells lack of TTXr sodium channels as shown by the absence of their respective transcripts. ND7/23 cells were grown in DMEM supplemented with 10% FBS and 1 mM sodium piruvate.
The cells were seeded at 50,000 cells/well on 96 poly-L-lysine-coated plates and further incubated for 18-24 h before use.
The Membrane Potential Kit Assay (Molecular Devices), based on a negatively charged fluorescent dye able to monitor changes in membrane potential caused by the sodium influx due to the channel opening, was used for the assay.
Cells were incubated with the dye loading for 30 minutes at 25° C. Then, 100 nM of the toxin Anemonia sulcata (used as enhancer of the channel opener response) alone or in the presence of TTX (as reference standard) or test compound were added for further 15 minutes.
The fluorescence (excitation: 530 nm, emission: 565 nm wavelength) was measured before and after (40-45 s) the automated injection of the sodium channel opener veratridine (100 μM) using a Victor plate reader (Perkin Elmer).
The inhibition curves were calculated from 5 concentrations, each in triplicate, and the IC50 determined using a linear regression analysis.

Where [5] appears, read: differentiated IMR32 cells, nifedipine 1 μM, 100 mM KCl depolarization, read-out: IC50.

Molecules are shown by their SMILES. Structures can show the parent of a compound that is named as a salt. Where two headings read alike, the source gives them in different places.

As usually defined, the IC50 is the concentration that gives 50% inhibition. A word on the inhibition: it is the share of the control response that was lost under treatment. A higher inhibition goes with a strong effect.

N-type calcium channels, sequence (Q00975 whole entry): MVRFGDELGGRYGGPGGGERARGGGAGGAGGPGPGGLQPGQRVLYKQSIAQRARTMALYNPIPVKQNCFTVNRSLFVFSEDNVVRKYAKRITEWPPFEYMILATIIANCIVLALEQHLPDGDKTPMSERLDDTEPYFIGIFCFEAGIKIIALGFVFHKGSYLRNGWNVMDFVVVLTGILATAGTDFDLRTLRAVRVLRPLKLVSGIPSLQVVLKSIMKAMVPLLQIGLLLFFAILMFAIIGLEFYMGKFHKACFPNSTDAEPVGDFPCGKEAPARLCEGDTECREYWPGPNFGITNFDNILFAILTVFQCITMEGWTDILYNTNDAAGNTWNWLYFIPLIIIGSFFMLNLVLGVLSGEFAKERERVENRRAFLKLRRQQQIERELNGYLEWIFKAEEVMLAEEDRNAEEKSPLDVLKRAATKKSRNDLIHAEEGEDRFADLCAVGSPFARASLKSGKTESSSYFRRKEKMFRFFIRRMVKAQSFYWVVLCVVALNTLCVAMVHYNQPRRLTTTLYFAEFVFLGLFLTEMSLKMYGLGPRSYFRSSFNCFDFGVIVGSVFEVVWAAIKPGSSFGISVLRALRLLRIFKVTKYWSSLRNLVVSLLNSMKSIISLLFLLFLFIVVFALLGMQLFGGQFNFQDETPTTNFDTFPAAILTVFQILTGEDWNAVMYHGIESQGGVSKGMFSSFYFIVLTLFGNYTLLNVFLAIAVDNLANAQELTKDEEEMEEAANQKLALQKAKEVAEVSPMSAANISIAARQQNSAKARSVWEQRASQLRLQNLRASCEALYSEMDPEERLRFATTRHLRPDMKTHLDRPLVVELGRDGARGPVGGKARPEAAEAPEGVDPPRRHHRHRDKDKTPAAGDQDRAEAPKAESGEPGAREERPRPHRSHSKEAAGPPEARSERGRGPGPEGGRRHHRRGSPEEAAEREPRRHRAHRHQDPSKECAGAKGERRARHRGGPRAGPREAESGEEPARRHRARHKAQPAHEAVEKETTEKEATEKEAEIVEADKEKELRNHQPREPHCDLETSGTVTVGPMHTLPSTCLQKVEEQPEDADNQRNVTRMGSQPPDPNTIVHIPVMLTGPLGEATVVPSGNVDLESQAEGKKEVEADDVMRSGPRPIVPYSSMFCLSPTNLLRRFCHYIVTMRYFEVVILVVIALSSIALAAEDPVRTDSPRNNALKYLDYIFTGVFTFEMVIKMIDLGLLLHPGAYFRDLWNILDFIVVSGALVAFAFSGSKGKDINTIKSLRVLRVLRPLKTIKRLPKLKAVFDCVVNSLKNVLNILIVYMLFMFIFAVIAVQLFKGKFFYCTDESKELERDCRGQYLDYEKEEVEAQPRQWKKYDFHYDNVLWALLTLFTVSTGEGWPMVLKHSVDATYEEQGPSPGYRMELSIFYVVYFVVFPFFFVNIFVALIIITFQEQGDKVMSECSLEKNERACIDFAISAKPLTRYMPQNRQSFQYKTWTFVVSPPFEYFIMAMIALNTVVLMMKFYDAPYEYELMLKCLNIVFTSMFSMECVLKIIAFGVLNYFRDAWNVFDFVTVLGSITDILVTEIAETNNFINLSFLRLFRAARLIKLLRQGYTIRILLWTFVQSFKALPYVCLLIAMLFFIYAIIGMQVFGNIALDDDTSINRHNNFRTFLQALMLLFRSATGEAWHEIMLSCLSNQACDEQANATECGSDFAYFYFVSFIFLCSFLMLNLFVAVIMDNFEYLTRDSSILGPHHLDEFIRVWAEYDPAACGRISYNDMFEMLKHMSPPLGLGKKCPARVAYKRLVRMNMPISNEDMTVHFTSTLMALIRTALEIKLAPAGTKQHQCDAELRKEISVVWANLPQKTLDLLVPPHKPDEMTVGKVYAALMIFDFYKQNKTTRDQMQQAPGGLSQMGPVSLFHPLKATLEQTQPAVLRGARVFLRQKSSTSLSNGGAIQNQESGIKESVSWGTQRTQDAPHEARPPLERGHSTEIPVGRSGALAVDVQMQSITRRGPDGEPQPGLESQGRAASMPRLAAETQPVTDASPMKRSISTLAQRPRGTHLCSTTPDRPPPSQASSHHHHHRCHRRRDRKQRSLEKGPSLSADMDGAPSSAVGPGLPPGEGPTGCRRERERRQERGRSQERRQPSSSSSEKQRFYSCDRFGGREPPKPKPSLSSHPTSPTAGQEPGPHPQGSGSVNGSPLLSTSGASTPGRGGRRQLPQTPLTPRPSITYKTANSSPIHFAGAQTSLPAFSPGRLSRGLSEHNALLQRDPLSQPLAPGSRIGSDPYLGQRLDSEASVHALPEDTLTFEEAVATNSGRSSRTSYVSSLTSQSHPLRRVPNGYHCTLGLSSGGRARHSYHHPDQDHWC
N-type calcium channels, sequence (Q02641 whole entry partner): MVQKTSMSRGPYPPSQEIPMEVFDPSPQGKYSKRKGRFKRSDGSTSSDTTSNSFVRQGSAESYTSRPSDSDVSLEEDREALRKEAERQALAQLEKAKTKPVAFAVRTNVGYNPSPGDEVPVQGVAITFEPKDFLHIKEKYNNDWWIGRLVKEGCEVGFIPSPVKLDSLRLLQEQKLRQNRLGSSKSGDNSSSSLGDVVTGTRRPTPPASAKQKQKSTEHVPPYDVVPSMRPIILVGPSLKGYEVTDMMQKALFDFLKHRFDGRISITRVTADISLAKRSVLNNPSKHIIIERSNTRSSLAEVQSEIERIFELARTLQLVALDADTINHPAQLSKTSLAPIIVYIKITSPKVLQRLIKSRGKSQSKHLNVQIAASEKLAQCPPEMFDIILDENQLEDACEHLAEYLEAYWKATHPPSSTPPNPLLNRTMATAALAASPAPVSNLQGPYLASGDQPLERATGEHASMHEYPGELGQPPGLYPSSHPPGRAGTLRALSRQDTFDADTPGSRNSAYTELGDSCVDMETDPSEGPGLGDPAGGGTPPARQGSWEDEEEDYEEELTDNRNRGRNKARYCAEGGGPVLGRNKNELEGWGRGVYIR
N-type calcium channels, sequence (P54289 25-956 partner limits assumed): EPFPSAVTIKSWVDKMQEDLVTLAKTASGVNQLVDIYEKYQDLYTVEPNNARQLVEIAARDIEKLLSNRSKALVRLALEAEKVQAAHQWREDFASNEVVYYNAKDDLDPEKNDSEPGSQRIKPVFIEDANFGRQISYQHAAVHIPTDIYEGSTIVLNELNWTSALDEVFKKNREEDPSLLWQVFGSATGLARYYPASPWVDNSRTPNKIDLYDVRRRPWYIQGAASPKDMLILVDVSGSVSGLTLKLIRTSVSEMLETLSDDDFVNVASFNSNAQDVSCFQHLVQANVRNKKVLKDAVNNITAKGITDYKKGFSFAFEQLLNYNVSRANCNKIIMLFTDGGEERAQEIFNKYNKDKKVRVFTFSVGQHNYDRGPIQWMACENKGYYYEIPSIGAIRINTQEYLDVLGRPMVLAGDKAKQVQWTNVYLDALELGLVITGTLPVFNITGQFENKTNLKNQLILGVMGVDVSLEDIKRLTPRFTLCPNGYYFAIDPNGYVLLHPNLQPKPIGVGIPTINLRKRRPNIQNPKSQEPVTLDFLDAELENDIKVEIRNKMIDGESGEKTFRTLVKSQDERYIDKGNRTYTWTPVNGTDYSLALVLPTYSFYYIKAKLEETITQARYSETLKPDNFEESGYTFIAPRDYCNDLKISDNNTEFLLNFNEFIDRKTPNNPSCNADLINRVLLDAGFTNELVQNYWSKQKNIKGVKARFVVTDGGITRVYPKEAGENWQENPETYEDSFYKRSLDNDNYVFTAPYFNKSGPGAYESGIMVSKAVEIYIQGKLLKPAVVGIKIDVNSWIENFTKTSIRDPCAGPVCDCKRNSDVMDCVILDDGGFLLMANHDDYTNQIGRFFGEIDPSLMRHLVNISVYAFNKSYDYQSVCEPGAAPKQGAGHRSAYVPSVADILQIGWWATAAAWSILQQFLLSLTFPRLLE
N-type calcium channels, sequence (P54289 957-1103 partner limits assumed): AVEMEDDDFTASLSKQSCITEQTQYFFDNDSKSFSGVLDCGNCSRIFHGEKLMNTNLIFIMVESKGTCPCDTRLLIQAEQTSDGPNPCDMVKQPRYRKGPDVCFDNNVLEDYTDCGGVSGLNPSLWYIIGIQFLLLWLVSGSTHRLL

On to `CNC(=O)CN(CCc1ccc(OCc2cccc(F)c2)c(OC)c1)CC(C)C` [Example 2, 2-[[2-[4-(3-Fluoro-benzyloxy)-3-methoxy-phenyl]-ethyl]-isobutylamino]-N-methyl-acetamide hydrochloride], for which the IC50 in experiment [1] (setting [5]) worked out at 4800 nM; in experiment [3], 3100 nM. In addition, the inhibition at 100 µM in experiment [2] was found to be 53%.
As to `CNC(=O)CN(CCc1ccc(OCc2cccc(F)c2)c(OC)c1)Cc1ccc(OC)nc1` [Example 14, 2-[[2-[4-(3-Fluoro-benzyloxy)-3-methoxy-phenyl]-ethyl]-(6-methoxy-pyridin-3-ylmethyl)amino]-N-methyl-acetamide], in experiment [4], the IC50 was 2900 nM.
For the molecule `COc1cc(CCN(CC(=O)NCC(C)(C)N)Cc2ccccc2)ccc1OCc1cccc(F)c1` [Example 42, 2-[[2-[4-(3-Fluoro-benzyloxy)-3-methoxy-phenyl]-ethyl]-benzylamino]-N-(2-amino-2-methyl-propyl)-acetamide hydrochloride], the IC50 was 2600 nM in experiment [1] (setting [5]) and 2400 nM in experiment [3]. Moreover, 100 µM produced 32% inhibition in experiment [2].
For `CNC(=O)CN(CCc1ccc(OCc2cccc(F)c2)c(OC)c1)Cc1ccoc1` [Example 10, 2-[[2-[4-(3-Fluoro-benzyloxy)-3-methoxy-phenyl]-ethyl]-(furan-3-ylmethyl)amino]-N-methyl-acetamide hydrochloride], the IC50 in experiment [3] was 1700 nM.
Turning to `COc1cc(CCN(CC(=O)N2CCCC2)Cc2ccccc2)ccc1OCc1cccc(F)c1` [Example 40, 2-[[2-[4-(3-Fluoro-benzyloxy)-3-methoxy-phenyl]-ethyl]-benzylamino]-1-(pyrrolidin-1-yl)-ethanone hydrochloride], the figures for the IC50 in experiment [1] (setting [5]) and in experiment [3] were 2200 nM and 1600 nM, respectively. The molecule also came in with an inhibition at 100 µM in experiment [2] of 11%.
`CNC(=O)[C@H](CC(C)C)NCCc1ccc(OCc2cccc(F)c2)c(OC)c1` [Example 31, (S)-2-[2-[4-(3-Fluoro-benzyloxy)-3-methoxy-phenyl]-ethylamino]-N-methyl-4-methyl-valeramide]: in experiment [3], the IC50 stood at 1000 nM.
In turn, `COc1cc(CCNC(C(=O)N(C)C)c2ccccc2)ccc1OCc1cccc(F)c1` (stereo not drawn) [Example 32, 2-[2-[4-(3-Fluoro-benzyloxy)-3-methoxy-phenyl]-ethylamino]-2-phenyl-N,N-dimethyl-acetamide hydrochloride] displayed an inhibition at 100 µM in experiment [2] of 0%.
With `CN(C)CCNC(=O)CN(CCc1cccc(OCc2cccc(F)c2)c1)Cc1ccco1` [Example 71, 2-[[2-[3-(3-Fluoro-benzyloxy)-phenyl]-ethyl]-(furan-2-ylmethyl)amino]-N-(2-dimethylamino-ethyl)-acetamide dihydrochloride], the IC50 was 1900 nM in experiment [1] (setting [5]) and 3400 nM in experiment [3]. In experiment [2], this molecule had an inhibition at 100 µM of 34%.
Molecule `CCNC(=O)CN(CCc1ccc(OCc2cccc(F)c2)c(OC)c1)Cc1ccccc1` [Example 37, 2-[[2-[4-(3-Fluoro-benzyloxy)-3-methoxy-phenyl]-ethyl]-benzylamino]-N-ethyl-acetamide hydrochloride] returned an inhibition at 100 µM in experiment [2] of 4%. The IC50 in experiment [4] stood at 1200 nM.
As to `CC(C)(N)CNC(=O)CN(CCc1cccc(OCc2cccc(F)c2)c1)Cc1ccco1` [Example 72, 2-[[2-[3-(3-Fluoro-benzyloxy)-phenyl]-ethyl]-(furan-2-ylmethy ° amino]-N-(2-amino-2-methyl-propyl)-acetamidedihydrochloride], the IC50 worked out at 2600 nM in experiment [1] (setting [5]) and 2900 nM in experiment [3]. In addition, the inhibition at 100 µM in experiment [2] worked out at 31%.
Take `CCNC(=O)CN(CCc1ccc(OCc2cccc(F)c2)c(OC)c1)CC1CC1` [Example 47, 2-[[2-[4-(3-Fluoro-benzyloxy)-3-methoxy-phenyl]-ethyl]-(cyclopropylmethyl)amino]-N-ethyl-acetamide hydrochloride]: in experiment [3], the IC50 stood at 1800 nM.
`COc1cc(CCN(CC(=O)NCCC2CCCN2C)Cc2ccccc2)ccc1OCc1cccc(F)c1` (stereo not drawn) [Example 44, 2-[[2-[4-(3-Fluoro-benzyloxy)-3-methoxy-phenyl]-ethyl]-benzylamino]-N-[2-(1-methyl-pyrrolidin-2-yl)-ethyl]-acetamide hydrochloride] showed an inhibition at 100 µM in experiment [2] of 39%.
Regarding `COc1cc(CCNC(C(=O)N2CCOCC2)c2ccccc2)ccc1OCc1cccc(F)c1` (stereo not drawn) [Example 33, 2-[2-[4-(3-Fluoro-benzyloxy)-3-methoxy-phenyl]-ethylamino]-1-(morpholin-4-yl)-2-phenyl-ethanone hydrochloride], the results for the IC50 in experiment [1] (setting [5]), in experiment [3] and in experiment [4] were 6000 nM, 7100 nM and 2100 nM, respectively. Also, the inhibition at 100 µM in experiment [2] was 0%.
Consider `COc1cc(CCN(CC(=O)NCCN(C)C)Cc2ccccc2)ccc1OCc1cccc(F)c1` [Example 43, 2-[[2-[4-(3-Fluoro-benzyloxy)-3-methoxy-phenyl]-ethyl]-benzylamino]-N-(2-dimethylamino-ethyl)-acetamide hydrochloride], for which the IC50 in experiment [1] (setting [5]) came out at 1900 nM; in experiment [3], 1200 nM. In addition, in experiment [2], the inhibition at 100 µM worked out at 33%.
With `COc1cc(CCN(CC(=O)N(C)C)Cc2ccccc2)ccc1OCc1cccc(F)c1` [Example 20, 2-[[2-[4-(3-Fluoro-benzyloxy)-3-methoxy-phenyl]-ethyl]-benzylamino]-N,N-dimethyl-acetamide hydrochloride], the IC50 in experiment [1] worked out at 1100 nM; in experiment [3] it was 4600 nM. In addition, in experiment [2], testing at 100 µM gave an inhibition of 3%.

The values above are taken from patent publication US8129427B2, “2-phenylethylamino derivatives as calcium and/or sodium channel modulators” (Newron Pharmaceuticals S.p.A., priority 2005, dated 2012).
